Results published in the supplement of paper PMC10307832.

What was measured:
Experiment in all cases: relative viability (nuclei count vs DMSO), 5 days (fraction); higher = more cells survive
Gemcitabine = compound: Nc1ccn([C@@H]2O[C@H](CO)[C@@H](O)C2(F)F)c(=O)n1 [Gemcitabine]
Summary of the method: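 Hoechst staining, done together with fixation and permeabilisation, marked nuclei for 4× imaging and MetaXpress counting. This followed 5 days without medium change after lung cancer cell lines, kept overnight at 37 °C in 1536-well plates, were pinned with five library-drug doses (not always all listed) spaced by √10 on vehicle-anchored plates. Viability is the ratio of treated-well to vehicle-well nuclei, expressed as a median across plates. Plates passed only at control CV below 25% with at least one doubling.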

Gemcitabine + Trametinib = compound: Nc1ccn([C@@H]2O[C@H](CO)[C@@H](O)C2(F)F)c(=O)n1 [Gemcitabine] + CC(=O)Nc1cccc(-n2c(=O)n(C3CC3)c(=O)c3c(Nc4ccc(I)cc4F)n(C)c(=O)c(C)c32)c1 [Trametinib] (partner 0.02 µM)
Summary of the method: (§1)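 Five library-drug doses in √10 steps were combined with a fixed anchor-drug dose, or a single drug was given alone, by pin tool to lung cancer cell lines in 1536-well plates the day after seeding. Nuclei were stained and counted after 5 days. Relative viability is the nuclei count in treated wells over that in vehicle wells, taken as the median of duplicate plates.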

Gemcitabine + Tozasertib = compound: Nc1ccn([C@@H]2O[C@H](CO)[C@@H](O)C2(F)F)c(=O)n1 [Gemcitabine] + Cc1cc(Nc2cc(N3CCN(C)CC3)nc(Sc3ccc(NC(=O)C4CC4)cc3)n2)n[nH]1 [Tozasertib] (partner 0.1 µM)
Summary of the method: as §1

Gemcitabine + AZD7762 = compound: Nc1ccn([C@@H]2O[C@H](CO)[C@@H](O)C2(F)F)c(=O)n1 [Gemcitabine] + NC(=O)Nc1cc(-c2cccc(F)c2)sc1C(=O)N[C@H]1CCCNC1 [AZD7762] (partner 0.2 µM)
Summary of the method: as §1

Row | Cell Line | relative viability (Gemcitabine; 0.001 µM) | relative viability (Gemcitabine; 0.003162 µM) | relative viability (Gemcitabine; 0.01 µM) | relative viability (Gemcitabine; 0.03162 µM) | relative viability (Gemcitabine; 0.1 µM) | relative viability (Gemcitabine + Trametinib; first compound 0.001 µM) | relative viability (Gemcitabine + Trametinib; first compound 0.003162 µM) | relative viability (Gemcitabine + Trametinib; first compound 0.01 µM) | relative viability (Gemcitabine + Trametinib; first compound 0.03162 µM) | relative viability (Gemcitabine + Trametinib; first compound 0.1 µM) | relative viability (Gemcitabine + Tozasertib; first compound 0.001 µM) | relative viability (Gemcitabine + Tozasertib; first compound 0.003162 µM) | relative viability (Gemcitabine + Tozasertib; first compound 0.01 µM) | relative viability (Gemcitabine + Tozasertib; first compound 0.03162 µM) | relative viability (Gemcitabine + Tozasertib; first compound 0.1 µM) | relative viability (Gemcitabine + AZD7762; first compound 0.001 µM) | relative viability (Gemcitabine + AZD7762; first compound 0.003162 µM) | relative viability (Gemcitabine + AZD7762; first compound 0.01 µM) | relative viability (Gemcitabine + AZD7762; first compound 0.03162 µM) | relative viability (Gemcitabine + AZD7762; first compound 0.1 µM)
1 | NCI-H1755 | 0.97 | 1 | 0.943 | 0.633 | 0.305 | 0.759 | 0.749 | 0.736 | 0.616 | 0.328 | 0.594 | 0.564 | 0.411 | 0.321 | 0.252 | 0.462 | 0.396 | 0.236 | 0.26 | 0.245
2 | NCI-H2087 | 1.04 | 0.852 | 0.349 | 0.132 | 0.118 | 0.191 | 0.204 | 0.141 | 0.121 | 0.0794 | 0.31 | 0.204 | 0.139 | 0.0946 | 0.0735 | 1.1 | 0.145 | 0.144 | 0.111 | 0.104
3 | NCI-H2228 | 0.973 | 0.695 | 0.235 | 0.161 | 0.132 | 0.587 | 0.248 | 0.156 | 0.0861 | 0.111 | 0.278 | 0.209 | 0.154 | 0.108 | 0.115 |  |  |  |  | 
4 | NCI-H727 | 0.802 | 0.567 | 0.347 | 0.332 | 0.32 | 0.447 | 0.355 | 0.33 | 0.327 | 0.328 | 0.571 | 0.443 | 0.352 | 0.431 | 0.321 | 0.545 | 0.45 | 0.389 | 0.311 | 0.403
5 | NCI-H650 | 0.878 | 0.316 | 0.195 | 0.157 | 0.165 | 0.809 | 0.469 | 0.126 | 0.141 | 0.129 | 0.676 | 0.384 | 0.193 | 0.143 | 0.15 | 0.359 | 0.172 | 0.204 | 0.186 | 0.161
6 | NCI-H520 | 1.05 | 0.942 | 0.43 | 0.22 | 0.165 | 0.848 | 0.752 | 0.159 | 0.143 | 0.144 | 0.422 | 0.446 | 0.316 | 0.208 | 0.239 |  |  |  |  | 
7 | EBC-1 | 0.791 | 0.235 | 0.174 | 0.138 | 0.142 |  |  |  |  |  |  |  |  |  |  |  |  |  |  | 
8 | NCI-H661 | 1.05 | 0.941 | 0.808 | 0.305 | 0.259 | 0.568 | 0.606 | 0.464 | 0.281 | 0.223 | 0.367 | 0.366 | 0.338 | 0.263 | 0.219 |  |  |  |  | 
9 | NCI-H1299 | 0.998 | 1.05 | 1 | 1.02 | 1.03 |  |  |  |  |  |  |  |  |  |  |  |  |  |  | 
10 | SK-LU-1 | 1.01 | 0.479 | 0.243 | 0.191 | 0.228 | 0.512 | 0.373 | 0.267 | 0.161 | 0.241 | 0.303 | 0.207 | 0.131 | 0.145 | 0.14 |  |  |  |  | 
11 | COR-L23 | 0.992 | 0.941 | 0.701 | 0.117 | 0.0953 | 0.584 | 0.656 | 0.248 | 0.116 | 0.099 | 0.223 | 0.19 | 0.111 | 0.0883 | 0.0724 |  |  |  |  | 
12 | NCI-H1650 | 1.04 | 0.572 | 0.271 | 0.154 | 0.163 | 0.556 | 0.337 | 0.208 | 0.174 | 0.137 | 0.507 | 0.348 | 0.273 | 0.119 | 0.113 |  |  |  |  | 
13 | IA-LM | 0.963 | 0.88 | 0.74 | 0.108 | 0.0519 |  |  |  |  |  |  |  |  |  |  |  |  |  |  | 
14 | NCI-H2009 | 1.01 | 0.746 | 0.24 | 0.167 | 0.114 | 0.268 | 0.327 | 0.16 | 0.115 | 0.088 | 0.854 | 0.65 | 0.24 | 0.163 | 0.11 |  |  |  |  | 
15 | NCI-H1563 | 0.998 | 0.983 | 0.866 | 0.538 | 0.49 |  |  |  |  |  |  |  |  |  |  |  |  |  |  | 
16 | SK-MES-1 | 0.945 | 0.473 | 0.216 | 0.203 | 0.17 | 0.605 | 0.551 | 0.25 | 0.237 | 0.178 | 0.691 | 0.305 | 0.197 | 0.147 | 0.126 |  |  |  |  | 
17 | UMC-11 | 1.04 | 0.992 | 0.974 | 0.869 | 0.375 | 0.627 | 0.635 | 0.716 | 0.609 | 0.161 | 0.197 | 0.162 | 0.221 | 0.211 | 0.215 |  |  |  |  | 
18 | ABC-1 | 0.965 | 0.823 | 0.703 | 0.291 | 0.235 |  |  |  |  |  | 0.185 |  | 0.159 | 0.188 | 0.187 | 0.748 | 0.757 | 0.964 | 0.295 | 0.304
19 | SW 1573 | 0.911 | 0.736 | 0.239 | 0.101 | 0.0671 | 0.46 | 0.405 | 0.117 | 0.0639 | 0.0615 | 0.189 | 0.165 | 0.0964 | 0.0589 | 0.0466 |  |  |  |  | 
20 | NCI-H1792 | 1.06 | 0.43 | 0.165 | 0.127 | 0.0999 | 0.414 | 0.183 | 0.0715 | 0.0564 | 0.0677 |  |  |  |  |  | 0.166 | 0.0355 | 0.0254 | 0.0229 | 0.033
21 | NCI-H2023 | 1.03 | 0.92 | 0.444 | 0.103 | 0.0642 | 0.567 | 0.577 | 0.266 | 0.152 | 0.0796 | 0.409 | 0.385 | 0.233 | 0.101 | 0.0648 |  |  |  |  | 
22 | COR-L 105 | 0.947 | 0.934 | 0.572 | 0.269 | 0.234 | 0.418 | 0.463 | 0.364 | 0.367 | 0.345 | 0.38 | 0.31 | 0.349 | 0.263 | 0.191 |  |  |  |  | 
